Test [1] deals with T1, SALL4B-Nluc in H1299 cells (Homo sapiens, UniProt Q96SW2+Q9UJQ4).
T1 construct: expressed in transfected cells
The test can be described thus: Dual-luciferase SALL4B reporter cellular assay (main screen), Nluc/Fluc ratio. It is filed as cell-based. The source says:
SALL4A or SALL4B was cloned into the dual-luciferase plasmid (pLL3.7-EF1a-IRES-Gateway-nluc-2xHA-IRES2-fluc-hCL1-P2A-Puro from Prof. William G. Kaelin group) to create a stable cell line (H1299, SALL4 negative) that ectopically express the SALL4A or B-NanoLuc fusion protein. SALL4A or B fused to nanoluciferase (Nluc) was expressed in a multicistronic mRNA with control firefly luciferase (Fluc). The measurement of Nluc/Fluc ratio enabled the determination of SALL4 fusion protein degradation relative to the internal Fluc control, independent of effects on transcription (FIG. 1A-B).
The assay was performed as described in Example 1 except in a 1,536-well plate which allows HTS of thermal shift hits from the primary screen, searching for SALL4 small molecule binders that can degrade the oncogenic SALL4B isoform. H1299 cells that stably express SALL4A/B_Nluc_Fluc were seeded in a 1,536-well clear bottom white plate (Corning) at 2,000 cells per well in RPMI medium (6 μL) and grown overnight (16 h) at 37° C., 5% CO2. Cells were treated with 8 μM of compounds for 6 h. Nano-Glo® Dual-Luciferase® Reporter Assay System and Pherastar plate reader were used for measuring the luciferase signal, following the manufacturer's instruction. For data analysis, the Nanoluc luminescence is normalized to firefly luciferase reading and then compared to the DMSO control. The screen was performed in triplicates.
The inventors treated H1299 cells overexpressing SALL4B_Nluc and the HCC (SNU-398, SNU-182) and NSCLC cells (H661) with increasing concentrations of QE-18-WG07 and IMiDs, and assayed the SALL4B_Nluc, as well as the endogenous SALL4A and B levels by immunoblots described in Example 4.

The target of test [2] is T2, SALL4B (Homo sapiens, UniProt Q9UJQ4).
T2 construct: endogenous in cells; host or cells: SNU-398 HCC cells
T2 sequence (Q9UJQ4 1-616 isoform Q9UJQ4-2): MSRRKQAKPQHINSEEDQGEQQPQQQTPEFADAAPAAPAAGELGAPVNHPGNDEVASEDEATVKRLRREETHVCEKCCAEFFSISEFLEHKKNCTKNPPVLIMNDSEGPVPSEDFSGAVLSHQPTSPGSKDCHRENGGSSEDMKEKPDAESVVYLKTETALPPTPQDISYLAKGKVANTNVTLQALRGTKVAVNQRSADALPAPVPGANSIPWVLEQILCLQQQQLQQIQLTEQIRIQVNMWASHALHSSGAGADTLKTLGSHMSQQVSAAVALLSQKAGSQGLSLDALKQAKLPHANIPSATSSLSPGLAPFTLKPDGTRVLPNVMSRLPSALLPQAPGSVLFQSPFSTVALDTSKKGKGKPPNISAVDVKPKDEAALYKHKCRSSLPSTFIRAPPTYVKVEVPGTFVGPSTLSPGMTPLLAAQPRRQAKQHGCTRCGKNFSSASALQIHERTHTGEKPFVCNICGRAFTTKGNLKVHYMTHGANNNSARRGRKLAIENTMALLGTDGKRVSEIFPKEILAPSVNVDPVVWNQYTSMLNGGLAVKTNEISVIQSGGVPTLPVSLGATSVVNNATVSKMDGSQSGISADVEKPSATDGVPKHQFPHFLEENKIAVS
The test can be described thus: Immunoblot of endogenous SALL4B in SNU-398 HCC cells. It is filed as cell-based. The protocol:
RIPA buffer containing freshly added protease inhibitors (2 mM PMSF) and protease inhibitor cocktail was used for cell lysis. The lysed cells were incubated for 10 min on ice and subsequently centrifuged at 4° C. for 10 min at 14,000 rpm. The protein concentrations of cell lysates were assessed using Bradford Assay as per manufacturer's instructions. The samples were denatured using 4× Sample buffer at 95° C. for 5 min. The samples were size resolved using polyacrylamide gel (8%) and Mini-PROTEAN Tetra Cell module. The size-resolved proteins were transferred onto PVDF via electroblotting using Mini Trans-Blot® module. The membrane was blocked using 5% BSA in TBST. The membrane was incubated with appropriate primary antibody (overnight) and secondary antibody (1 h). Immobilon Crescendo Western HRP substrate was used for signal development and images were acquired using darkroom development techniques.
A head-to-head comparison between the newly discovered SALL4 degrader QE-18-WG07 and IMiDs (Pomalidomide and Thalidomide) was performed. To assess the differential isoform degradation and biological consequences induced by QE-18-WG07 and IMiDs in cancer cells, the inventors employed the newly developed SALL4 isoform-specific cellular luciferase reporter system in Example 1 (FIG. 1A), and human HCC cell lines (SNU-398 and SNU-182), and NSCLC cell line H661 that have a high SALL4 level endogenously. The inventors treated H1299 cells overexpressing SALL4B_Nluc and the HCC (SNU-398, SNU-182) and NSCLC cells (H661) with increasing concentrations of QE-18-WG07 and IMiDs, and assayed the SALL4B_Nluc, as well as the endogenous SALL4A and B levels by immunoblots described in Example 4.
26S proteasome complex and neddylation was inhibited by cotreating MG132 at 1 and 3 μM and MLN4924 at 10 and 15 μM for 18 h, 20 h, 24 h or 48 h with desired concentrations of QE-18-WG07 in SNU-398, H661 and SNU-182 cells. After 18 h or 24 h of treatment, cells were then lysed and subjected to further protein extraction and immunoblotting by following the protocol in Example 4. For caspase glo assay, 20 h of cotreatment was performed by following the protocol in Example 5. For viability assay, 48 h of cotreatment was carried out by following the protocol in Example 5.
For lentiviral transduction, SNU-398 cells were spun with lentiviral particles containing the aforementioned vectors in RPMI (plus 10% FBS, 8 μg/mL polybrene) at 800 g for 60 minutes at room temperature. 96 h post-infection, cells were seeded in 6-well or 384-well plates and incubated overnight at 37° C., 5% CO2. Cells were then treated with DMSO or QE-18-WG07 at desired concentrations (0.5% final DMSO) for 18 h and 24 h. Immunoblot analysis was subsequently performed with the indicated antibodies by following the protocol in Example 4. […]
On the technique in general: Immunoblotting shows a protein as a band on a membrane.

T1 sequence (Q96SW2 whole entry, one chain of several): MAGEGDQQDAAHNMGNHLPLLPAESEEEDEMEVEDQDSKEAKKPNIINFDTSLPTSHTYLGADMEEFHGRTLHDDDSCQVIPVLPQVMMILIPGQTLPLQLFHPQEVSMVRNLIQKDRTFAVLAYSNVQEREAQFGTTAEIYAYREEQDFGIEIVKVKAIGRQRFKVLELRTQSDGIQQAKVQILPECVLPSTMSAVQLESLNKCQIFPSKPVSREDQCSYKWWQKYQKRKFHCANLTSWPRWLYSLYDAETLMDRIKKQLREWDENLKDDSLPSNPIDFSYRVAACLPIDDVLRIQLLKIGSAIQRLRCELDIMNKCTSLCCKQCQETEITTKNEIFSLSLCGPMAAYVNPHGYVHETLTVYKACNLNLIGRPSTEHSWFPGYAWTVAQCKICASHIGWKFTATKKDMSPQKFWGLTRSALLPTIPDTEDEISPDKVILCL
T1 sequence (Q16531 whole entry partner, one chain of several): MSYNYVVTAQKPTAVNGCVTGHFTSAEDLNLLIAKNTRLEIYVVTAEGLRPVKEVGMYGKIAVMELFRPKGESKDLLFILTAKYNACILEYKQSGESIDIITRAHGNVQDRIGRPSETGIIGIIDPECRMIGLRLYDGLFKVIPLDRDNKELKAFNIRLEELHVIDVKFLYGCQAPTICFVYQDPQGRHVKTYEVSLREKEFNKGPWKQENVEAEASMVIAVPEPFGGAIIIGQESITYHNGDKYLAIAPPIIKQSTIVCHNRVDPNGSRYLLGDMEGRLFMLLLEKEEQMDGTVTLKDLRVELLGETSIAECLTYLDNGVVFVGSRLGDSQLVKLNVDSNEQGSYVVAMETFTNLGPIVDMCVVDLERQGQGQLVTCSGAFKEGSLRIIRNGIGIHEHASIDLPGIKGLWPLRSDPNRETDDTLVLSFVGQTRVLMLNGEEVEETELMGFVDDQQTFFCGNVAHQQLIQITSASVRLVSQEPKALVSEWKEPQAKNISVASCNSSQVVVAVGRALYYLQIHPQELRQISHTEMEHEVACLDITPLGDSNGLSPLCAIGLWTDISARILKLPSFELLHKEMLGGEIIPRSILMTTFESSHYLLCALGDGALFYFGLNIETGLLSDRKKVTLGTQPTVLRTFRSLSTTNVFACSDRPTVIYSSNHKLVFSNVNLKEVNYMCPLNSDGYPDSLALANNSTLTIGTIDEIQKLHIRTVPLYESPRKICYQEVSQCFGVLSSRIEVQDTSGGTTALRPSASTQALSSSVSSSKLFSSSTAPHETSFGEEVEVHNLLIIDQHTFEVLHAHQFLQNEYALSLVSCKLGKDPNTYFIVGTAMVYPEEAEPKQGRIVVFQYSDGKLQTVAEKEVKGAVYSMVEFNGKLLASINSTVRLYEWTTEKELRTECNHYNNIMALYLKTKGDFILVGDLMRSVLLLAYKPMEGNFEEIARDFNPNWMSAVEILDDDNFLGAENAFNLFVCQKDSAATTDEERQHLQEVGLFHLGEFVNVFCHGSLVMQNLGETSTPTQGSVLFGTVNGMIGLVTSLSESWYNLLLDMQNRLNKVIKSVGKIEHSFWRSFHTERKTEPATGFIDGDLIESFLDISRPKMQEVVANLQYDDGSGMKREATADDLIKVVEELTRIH

With `COc1ccccc1NC(=O)Nc1ccc([N+](=O)[O-])cc1O` [QE-18-WG07], in test [1] (8 μM, 6 h, H1299 cells overexpressing SALL4B fused with Nluc), the main screen readout was −31. In addition, the Dmax turned out to be 75% in test [1] (NCI-H1299, SALL4B dual-luciferase reporter assay, 9 hours of treatment, read-out: maximum degradation (Dmax) of SALL4B_Nluc) and 87% in test [2] (SNU-398 HCC cells, 24 h of treatment, immunoblot quantification). In addition, the “reduction in the amount of SALL4B protein” value in test [1] (after 6 h of incubation in H1299 cells overexpressing SALL4B fused with Nluc) was 31%. In addition, the “SALL4B_Luc Reporter Assay % SALL4B Downregulation” value in test [1] (normalized to DMSO control, mean ± SD (n = 3), 8 μM, 6 h treatment, H1299 cells) was 29.8 ± 1.8%. Moreover, the “degradation of endogenous SALL4B after CRBN knockdown by shRNA” value in test [2] (CRBN-KD SNU-398 cells, 18 h) is recorded as “prevented”. For the same compound, the “SALL4B degradation under MG132 or MLN4924 cotreatment” value in test [2] (SNU-398, SNU-182 and H661 cells) is “chemically rescued”. Moreover, the DC50 in test [2] (SNU-398 cells, 24 h, immunoblot quantification) is ~640 nM.

Source of the values: US20240335429A1, “MOLECULAR GLUE AND SALL4 DEGRADER” (National University of Singapore, priority 2021, published 2024).
